Laboratory results: patent EP3744709B1, “NEW CRYSTAL FORM OF TEMBOTRIONE” (ANHUI JIUYI AGRICULTURE CO., LTD., priority 2018, dated 2020)
Converted amounts (≈) assume the structure as drawn.

Legend:
physchem = assay type: physicochemical; details: for solubility: 25 °C, thermodynamic from solid; for Solubility, water: pH 4
Description: At 25±2°C, 100mL (which may be scaled down) solvent was added in a beaker. A certain mass of crystal forms A, B, C and D of tembotrione were weighted (to ensure insufficient dissolution, tembotrione may be weighted more than once if necessary and the total mass was calculated). The solute was gradually added, continuously stirred and sufficiently dissolved until the solution was exactly saturated (if there was solid precipitation, it was filtrated out and dried, and put back to the undissolved solid). Total mass of the undissolved solid was weighted to calculate the mass of the dissolved solid in 100mL (100g) solvent, i.e., the solubility of the solid in the solvent at the temperature. In the present disclosure, solubility of crystal forms A, B, C and D of tembotrione in several common solvents were tested, and the results were shown in Table 2. Table 2 Solubility of crystal forms A, B, C and D of tembotrione in different solvents

[1] = Dissolution rate test (suspension in methanol/water with temperature cycling, decomposition after 14 days); assay type: physicochemical; details: suspended in methanol : water 1 : 5 (volume), 10-30° C, 14 days later; for decomposition rate: temperature periodically changed at 0.5K/min
Description: Further, in the present disclosure, the dissolution rate of crystal from D of tembotrione was tested as following: the crystal form D of tembotrione was suspended in a mixture of methanol and water (the volume ratio of methanol : water was 1 : 5) at a temperature of 10-30° C, and the temperature was changed at a rate of 0.5K/min. […] Crystal forms A, B, C and D of tembotrione were suspended in a mixture of methanol and water (the volume ratio of methanol to water was 1 : 5) at a temperature of 10-30° C, and the temperature was periodically changed at a rate of 0.5K/min.

CS(=O)(=O)c1ccc(C(=O)C2C(=O)CCCC2=O)c(Cl)c1COCC(F)(F)F [crystal form A, 2-[2-chloro-4-methylsulfonyl-3-(2,2,2-trifluoroethoxymethyl)benzoyl]cyclohexane-1,3-dione]
solubility (physchem; organic solvent or mixture, methanol): 8600 µg/mL (≈ 19.5 mM) | solubility (physchem; organic solvent or mixture, toluene): 80000 µg/mL (≈ 181 mM) | solubility (physchem; pH 4, aqueous buffer, water): 260 µg/mL (≈ 0.59 mM) | decomposition rate [1]: 0.1%

CS(=O)(=O)c1ccc(C(=O)C2C(=O)CCCC2=O)c(Cl)c1COCC(F)(F)F [crystal form B, 2-[2-chloro-4-methylsulfonyl-3-(2,2,2-trifluoroethoxymethyl)benzoyl]cyclohexane-1,3-dione]
Solubility, methanol (physchem): 8800 µg/mL (≈ 20 mM) | Solubility, toluene (physchem): 81000 µg/mL (≈ 184 mM) | Solubility, water (physchem): 280 µg/mL (≈ 0.635 mM) | decomposition rate [1]: 0.4%

CS(=O)(=O)c1ccc(C(=O)C2C(=O)CCCC2=O)c(Cl)c1COCC(F)(F)F [crystal form C, 2-[2-chloro-4-methylsulfonyl-3-(2,2,2-trifluoroethoxymethyl)benzoyl]cyclohexane-1,3-dione]
Solubility, methanol (physchem): 8500 µg/mL (≈ 19.3 mM) | Solubility, toluene (physchem): 80200 µg/mL (≈ 182 mM) | Solubility, water (physchem): 250 µg/mL (≈ 0.567 mM) | decomposition rate [1]: 0.15%

CS(=O)(=O)c1ccc(C(=O)C2C(=O)CCCC2=O)c(Cl)c1COCC(F)(F)F [crystal form D, 2-[2-chloro-4-methylsulfonyl-3-(2,2,2-trifluoroethoxymethyl)benzoyl]cyclohexane-1,3-dione]
Solubility, methanol (physchem): 8200 µg/mL (≈ 18.6 mM) | Solubility, toluene (physchem): 75700 µg/mL (≈ 172 mM) | Solubility, water (physchem): 220 µg/mL (≈ 0.499 mM) | dissolution rate ([1]; 0.5K/min): slow | decomposition rate [1]: 0.06%
